# Data published in patent US8697747B2, “Enhancing coagulation or reducing fibrinolysis” (THe UAB Research Foundation, priority 2009, dated 2014).
# Legend:
# Format in all cases: biochemical, human
# [1] = tested on: factor VIII deficient plasma; experiment: Thrombelastography, factor VIII deficient plasma; details: FVIII deficient plasma, 11 individuals, mean ± SD
# Method: Plasma deficient (<1% normal activity) in factor VIII (FVIII; 11 individuals), factor IX (FIX; 5 individuals), or factor VII (FVII; 4 individuals) was obtained from anonymous donors (George King Bio-Medical, Overland Park, Kans.) and was anticoagulated with sodium citrate. The final volume for all subsequently described plasma sample mixtures was […]. Sample composition consisted of […] of plasma, […] of tissue factor (0.1% final concentration in 0.9% NaCl; Diagnostica Stago, Asnieres, France), 3.6 mL of dimethyl sulfoxide (DMSO) or DMSO with CORM-2 ([…]; Sigma-Aldrich, St. Louis, Mo.), and 20 mL of […] CaCl2. […] (Motterlini et al. 2005). While CORM-2 decays slowly in DMSO, DMSO was added to the dry compound just prior to placement into the plasma mixture.
# Plasma sample mixtures were placed in a disposable cup in a computer-controlled THROMBELASTOGRAPH® hemostasis system (Model 5000; Haemoscope Corp., Niles, Ill.), with addition of CaCl2 as the last step to initiate clotting. Data were collected until clot strength stabilized (maximum amplitude).
# Statistical analyses. […] A paired student's t-test was used to analyze the effects of CORM-2 exposure in FVIII deficient individuals. The results of the FIX and FVII deficient groups were presented but not statistically analyzed secondary to the small number of individuals in each cohort. […] Statistical analyses and graphical representation of the data were generated with commercially available software (SigmaPlot 11.0; Systat Software Inc., San Jose, Calif.; CorelDRAW 12.0; Corel Corp., Ottawa, Ontario, Canada). A P value of less than 0.05 was considered significant.
# [2] = tested on: FXIII deficient plasma; experiment: CLSM thrombelastography with tPA, FXIII deficient plasma; details: 100 μM CORM-2, tPA 100 IU/mL, median, n=8
# Method: (§1) Pooled normal plasma (George King Bio-Medical, Overland Park, Kans.) anticoagulated with sodium citrate was utilized for experimentation. […] Factor XIII (FXIII) deficient plasma anticoagulated with sodium citrate was also obtained from the same vendor.
# (§2) Plasma Sample Composition. The final volume for all subsequently described plasma sample mixtures was 359.4 μL. Sample composition consisted of 316 μL of plasma; 10 μL of tissue factor (0.1% final concentration in 0.9% NaCl; Diagnostica Stago, Asnieres, France), 3.6 μL of dimethyl sulfoxide (DMSO) or DMSO with CORM-2 (Sigma-Aldrich, St. Louis, Mo.) or DMSO with inactivated CORM-2 (iCORM-2), 10 μL of tissue-type plasminogen activator (tPA, 580 U/μg, Genentech, Inc., San Francisco, Calif.) diluted with 10 mM potassium phosphate buffer (pH 7.4) for a final activity of 100 IU/mL, and 20 μL of 200 mM CaCl2. […] This concentration of CORM-2 was chosen because the concentration of CO released would be expected to be in the mid to lower ranges used in previously reported ex vivo, in vitro, and cell-based experiments (Motterlini et al. 2002; Megias et al. 2007; Chlopicki et al. 2006; Dong et al. 2008). […] (Motterlini et al. 2005). While CORM-2 decays slowly in DMSO, DMSO was added to the dry compound just prior to placement into the plasma mixture. The specific series of experiments are subsequently presented.
# (§3) Assessment of the Effects of CORM-2 on CLSM Parameters in FXIII, PAI-1, TAFI and α2-antiplasmin Deficient Plasmas. These experiments were performed to elucidate the roles played by antifibrinolytic enzymes during CORM-2 mediated modulation of fibrinolysis. Samples of the various deficient plasmas were exposed to 0 or 100 μM of CORM-2 (n=8 per condition). Samples underwent CLSM analyses as subsequently described.
# (§4) Clot Lifespan Model Analyses. As described in Example 1, plasma sample mixtures were placed in a disposable cup in a computer-controlled THROMBELASTOGRAPH® hemostasis system (Model 5000, Haemoscope Corp., Niles, Ill.), with addition of CaCl2 as the last step to initiate clotting. Data were collected until clot lysis time occurred. […] As this model involves complete fibrinolysis, TTG is equivalent to ACL, so ACL was not presented as it provides no additional information.
# (§5) Statistical Analyses. Data are presented as median (1st, 3rd quartiles). […] Nonlinear and linear analyses and curve fitting of the various CORM-2 concentrations effects on CLSM variables were performed with commercially available software (SigmaPlot 11.0, Systat Software, Inc., San Jose, Calif.). Analyses of the effects of CORM-2 and iCORM-2 on CLSM variables in normal plasma were conducted with Kruskal-Wallis one way analysis of variance on ranks, whereas Mann-Whitney rank sum tests were used to assess the effects of CORM-2 on CLSM variables in the various immunodepleted/congenitally deficient plasma types (SigmaStat 3.1, Systat Software, Inc., San Jose, Calif.). Graphical representation of the data was generated with commercially available software (SigmaPlot 11.0, Systat Software, Inc., San Jose, Calif.; CorelDRAW 12.0, Corel Corporation, Ottawa, Ontario, Canada; Origin 7.5, OriginLab Corp., Northampton, Mass.). A P value of <0.05 was considered significant.
# [3] = tested on: PAI-1 deficient plasma; experiment: CLSM thrombelastography with tPA, PAI-1 deficient plasma; details: 100 μM CORM-2, tPA 100 IU/mL, median, n=8
# Method: as §1, §2, §3, §4, §5
compound,measurement,setting,value
"[C-]#[O+].[C-]#[O+].[C-]#[O+].[C-]#[O+].[C-]#[O+].[C-]#[O+].[Cl][Ru][Cl].[Cl][Ru][Cl] [CORM-2, tricarbonyldichlororuthenium (II) dimer]",TMRTG (time to maximum rate of thrombus generation),[1]; 100 mmol CORM-2,4.0 ± 2.3 min
same,TTG (total thrombus generation),[1]; 100 mmol CORM-2,232±56 dynes/cm^2
same,MRTG (maximum rate of thrombus generation),[1]; CORM-2,5.0±2.7 dynes/cm^2/sec
same,CGT (clot growth time),[2],820 s
same,CLS (clot lifespan),[2],2258 s
same,CLT (clot lysis time),[2],1460 s
same,MRL (maximum rate of lysis),[2],−1.0 -dynes/cm^2/sec
same,MRTG (maximum rate of thrombus generation),[2],5.8 dynes/cm^2/sec
same,TMRL (time to maximum rate of lysis),[2],855 s
same,TMRTG (time to maximum rate of thrombus generation),[2],195 s
same,TTG (total thrombus generation),[2],160 dynes/cm^2
same,CGT (clot growth time),[3],500 s
same,CLS (clot lifespan),[3],1565 s
same,CLT (clot lysis time),[3],1070 s
same,MRL (maximum rate of lysis),[3],−2.2 -dynes/cm^2/sec
same,MRTG (maximum rate of thrombus generation),[3],9.4 dynes/cm^2/sec
same,TMRL (time to maximum rate of lysis),[3],750 s
same,TMRTG (time to maximum rate of thrombus generation),[3],160 s
same,TTG (total thrombus generation),[3],228 dynes/cm^2
